Experimental data: patent US9879023B2, “Therapeutic compounds” (Gilead Sciences, Inc., priority 2011, dated 2018)
Like-named read-outs stand apart in the source and are kept apart here.

System: HIV-IIIb (MT-4 cells)
Assay: Test A: Antiviral Assays in MT4 Cells
Format: cell-based
Conditions: MT-4 cells infected with HIV-IIIb (0.004 m.o.i.), 5 days incubation, CellTiter-Glo readout, read-out: EC50
Experimental: Test A: Antiviral Assays in MT4 Cells
For the antiviral assay utilizing MT-4 cells, 0.4 μL of […] test concentration of 3-fold serially diluted compound in DMSO was added to 40 μL of cell growth medium (RPMI 1640, 10% FBS, 1% penicilline/Streptomycine, 1% L-Glutamine, 1% HEPES) in each well of 384-well assay plates (10 concentrations) in quadruplicate.
1 mL aliquots of 2×10e6 MT-4 cells are pre-infected for 1 and 3 hrs respectively, @37° C. with 25 uL (MT4) or of either cell growth medium (mock-infected) or a fresh 1:250 dilution of an HIV-IIIb concentrated ABI stock (0.004 m.o.i. for MT4 cells). Infected and uninfected cells are diluted in cell growth medium and 35 uL of 2000 (for MT4) cells is added to each well of the assay plates.
Assay plates were then incubated in a 37° C. incubator. After 5 days of incubation, 25 μl of 2× concentrated CellTiter-Glo™ Reagent (catalog # G7573, Promega Biosciences, Inc., Madison, Wis.) was added to each well of the assay plate. Cell lysis was carried out by incubating at room temperature for 2-3 min and then chemiluminescence was read using the Envision reader (PerkinElmer). […]

[1] = Human immunodeficiency virus 1, IIIB, MT4, 120 h

Cc1cc2c(sc(=O)n2C)c(-c2ccc3c4c(ccnc24)CCO3)c1[C@H](OC(C)(C)C)C(=O)O (atropisomer, axis not shown) [Compound 68, (S)-2-tert-butoxy-2-((S)-7-(2,3-dihydropyrano[4,3,2-de]quinolin-7-yl)-3,5-dimethyl-2-oxo-2,3-dihydrobenzo[d]thiazol-6-yl)acetic acid] was tested. Which EC50 [1] did it give?
The EC50 was 292 nM.

With Cc1cc2nc(C(C)C)sc2c(-c2ccc3c4c(ccnc24)CCO3)c1[C@H](OC(C)(C)C)C(=O)O (atropisomer, axis not shown) [Compound 88, (S)-2-tert-butoxy-2-((S)-7-(2,3-dihydropyrano[4,3,2-de]quinolin-7-yl)-2-isopropyl-5-methylbenzo[d]thiazol-6-yl)acetic acid] as the compound, how does the EC50 [1] read?
Its EC50 is 13.3 nM.

With Cc1cc2c(sc(=O)n2Cc2ccccc2C(F)(F)F)c(-c2ccc3c4c(ccnc24)CCO3)c1[C@H](OC(C)(C)C)C(=O)O (atropisomer, axis not shown) [Compound 71, (S)-2-tert-butoxy-2-((S)-7-(2,3-dihydropyrano[4,3,2-de]quinolin-7-yl)-5-methyl-2-oxo-3-(2-(trifluoromethyl)benzyl)-2,3-dihydrobenzo[d]thiazol-6-yl)acetic acid] as the compound, how does the EC50 [1] read?
Its EC50 is 984 nM.

Which EC50 does the source give for Cc1cc2nc(C3CCCC3)sc2c(-c2ccc3c4c(ccnc24)CCO3)c1[C@H](OC(C)(C)C)C(=O)O (atropisomer, axis not shown) [Compound 81, (S)-2-tert-butoxy-2-((R)-2-cyclopentyl-7-(2,3-dihydropyrano[4,3,2-de]quinolin-7-yl)-5-methylbenzo[d]thiazol-6-yl)acetic acid] here?
The EC50 was 27400 nM.

With Cc1cc2nc(N(C)C(C)C)sc2c(-c2ccc3c4c(ccnc24)CCO3)c1[C@H](OC(C)(C)C)C(=O)O (atropisomer, axis not shown) [Compound 46, (S)-2-tert-butoxy-2-((S)-7-(2,3-dihydropyrano[4,3,2-de]quinolin-7-yl)-2-(isopropyl(methyl)amino)-5-methylbenzo[d]thiazol-6-yl)acetic acid] as the compound, how does the EC50 read?
Its EC50 is 16.8 nM.
